# Test results published in ChEMBL document CHEMBL1142474, “Structure-activity relationship studies of imidazo[1,2-c]pyrimidine derivatives as potent and orally effective Syk family kinases inhibitors” (Bioorg Med Chem, 2008).
# pIC50: −log10 of the molar value. Activity calls are given as the source filed them. The rule behind the calls is not given here.
# Key:
# PBMC = assay: Inhibition of IL2 production in PHA-stimulated human PBMC after 24 hrs by ELISA
# Blood = assay: Inhibition of IL2 production in PHA-stimulated human whole blood after 24 hrs by ELISA
# [1] = Apparent permeability across human Caco-2 cells; type: ADME, cell-based
# Mus musculus [2] = assay: Suppression of concanavalin A-induced IL2 production in po dosed ICR mouse administered 1 hr before concanavalin A challenge relative to control
# Mus musculus [3] = assay: Plasma concentration in mouse at 30 mg/kg, po; type: ADME, organism-based; parameters: dose 30 mg/kg, route oral; conditions: in vivo
# Mus musculus [4] = assay: Plasma concentration in mouse at 10 mg/kg, po; type: ADME, organism-based; parameters: dose 10 mg/kg, route oral; conditions: in vivo
# Mus musculus [5] = assay: Plasma concentration in mouse at 100 mg/kg, po; type: ADME, organism-based; parameters: dose 100 mg/kg, route oral; conditions: in vivo
# [6] = target: T1, Tyrosine-protein kinase ZAP-70 (Homo sapiens, UniProt P43403); assay: Inhibition of human ZAP70 expressed in Sf9 cells
# T1 sequence (P43403 whole entry): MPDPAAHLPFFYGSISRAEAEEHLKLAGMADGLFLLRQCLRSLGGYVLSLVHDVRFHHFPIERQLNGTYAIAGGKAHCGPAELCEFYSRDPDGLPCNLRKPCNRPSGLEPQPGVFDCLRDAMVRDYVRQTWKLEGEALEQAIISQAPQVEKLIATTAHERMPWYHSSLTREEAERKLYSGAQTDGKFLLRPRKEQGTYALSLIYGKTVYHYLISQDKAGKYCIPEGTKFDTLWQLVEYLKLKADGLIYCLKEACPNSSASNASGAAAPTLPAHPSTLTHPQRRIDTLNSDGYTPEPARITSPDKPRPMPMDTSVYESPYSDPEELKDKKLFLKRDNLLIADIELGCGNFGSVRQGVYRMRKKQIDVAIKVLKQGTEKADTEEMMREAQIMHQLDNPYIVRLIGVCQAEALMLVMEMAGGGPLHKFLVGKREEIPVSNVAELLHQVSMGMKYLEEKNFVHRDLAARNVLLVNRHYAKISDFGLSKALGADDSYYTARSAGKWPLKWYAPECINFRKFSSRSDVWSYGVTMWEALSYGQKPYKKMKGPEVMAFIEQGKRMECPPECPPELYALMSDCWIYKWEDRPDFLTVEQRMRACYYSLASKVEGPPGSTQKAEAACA
# [7] = target: Tyrosine-protein kinase SYK (Homo sapiens, UniProt P43405)
# Description: Inhibition of human Syk expressed in Sf9 cells
# Mus musculus [8] = assay: Suppression of anti-dinitrophenyl-coupled IgE-induced passive cutaneous anaphylaxis reaction in po dosed ICR mouse administered 1 hr before antigen challenge relative to control; type: functional, organism-based
# [9] = Solubility in water; type: physicochemical
# Mus musculus [10] = assay: Plasma concentration in mouse at 3 mg/kg, po; type: ADME, organism-based; parameters: dose 3 mg/kg, route oral; conditions: in vivo
Compound,pIC50 (Blood),Papp [1] [×10⁻⁶ cm/s],pIC50 (PBMC),Activity (Mus musculus [2]),also measured
COc1ccccc1Nc1nc(N[C@H]2CCCC[C@H]2N)n2ccnc2c1C(N)=O (relative stereo),,,,,pIC50 [6]: < 5.00; pIC50 [7]: < 5.00
NC(=O)c1c(Nc2cc(F)cc(F)c2)nc(N[C@H]2CCCC[C@H]2N)n2ccnc12 (relative stereo),5.52,,6.82,,
CN[C@@H]1C[C@H]2O[C@@](C)([C@@H]1OC)n1c3ccccc3c3c4c(c5c6ccccc6n2c5c31)C(=O)NC4 [STAUROSPORINE],,,7.80,,

# More lines, in order of rising pIC50 (Blood), values ahead:
pIC50 (Blood),Papp [1] [×10⁻⁶ cm/s],Compound,pIC50 (PBMC),Activity (Mus musculus [2]),also measured
5.70,0.43,COc1cc(Nc2nc(N[C@H]3CCCC[C@H]3N)n3cc(-c4ccccc4)nc3c2C(N)=O)cc(OC)c1,6.70,,
6.00,,Cc1cc(C)cc(Nc2nc(N[C@H]3CCCC[C@H]3N)n3ccnc3c2C(N)=O)c1 (relative stereo),6.70,,
6.32,0.33,COc1cc(Nc2nc(N[C@H]3CCCC[C@H]3N)n3ncnc3c2C(N)=O)cc(OC)c1,7.12,inactive,
6.36,0.01,COc1cc(Nc2nc(N[C@H]3CCCC[C@H]3N)n3cnnc3c2C(N)=O)cc(OC)c1,7.34,inactive,Cp (Mus musculus [3]): 26.5 ng/mL; Cp (Mus musculus [4]): 28.4 ng/mL; Cp (Mus musculus [5]): 45.2 ng/mL
6.55,3.33,COc1cc(Nc2nc(N[C@H]3CCCC[C@H]3N)n3ccnc3c2C(N)=O)cc(OC)c1 (relative stereo),7.24,Dose-dependent effect,Cp (Mus musculus [3]): 770 ng/mL; Activity (Mus musculus [8]): Dose-dependent effect; solubility [9]: 930 µg/mL; Cp (Mus musculus [4]): 191 ng/mL; Cp (Mus musculus [10]): 40 ng/mL; Cp (Mus musculus [5]): 4031 ng/mL
